In ChEMBL document CHEMBL5291721, “A preclinical secondary pharmacology resource illuminates target-adverse drug reaction associations of marketed drugs” (Nat Commun, 2023):

Tests used:
[1] = target: 5-hydroxytryptamine receptor 2A (Homo sapiens, UniProt P28223); format: functional, cell-based
Histamine H1 receptor = Histamine H1 receptor (Homo sapiens, UniProt P35367)
[2] = target: Sodium channel protein type 5 subunit alpha (Homo sapiens, UniProt Q14524); format: functional, cell-based
Histamine H2 receptor = Histamine H2 receptor (Homo sapiens, UniProt P25021)
Chain of Histamine H2 receptor (P25021 whole entry): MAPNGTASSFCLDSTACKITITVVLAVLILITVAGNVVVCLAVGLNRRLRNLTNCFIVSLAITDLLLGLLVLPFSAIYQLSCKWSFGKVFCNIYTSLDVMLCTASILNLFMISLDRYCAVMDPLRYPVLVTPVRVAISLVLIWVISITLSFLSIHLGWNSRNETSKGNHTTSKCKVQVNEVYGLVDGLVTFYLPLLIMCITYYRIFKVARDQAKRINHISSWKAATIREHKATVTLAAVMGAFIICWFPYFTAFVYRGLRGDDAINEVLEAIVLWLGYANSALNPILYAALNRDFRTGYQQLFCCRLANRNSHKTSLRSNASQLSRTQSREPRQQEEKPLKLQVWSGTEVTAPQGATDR

Progesterone receptor = target: T1, Progesterone receptor (Homo sapiens, UniProt P06401)
T1 sequence (P06401 whole entry): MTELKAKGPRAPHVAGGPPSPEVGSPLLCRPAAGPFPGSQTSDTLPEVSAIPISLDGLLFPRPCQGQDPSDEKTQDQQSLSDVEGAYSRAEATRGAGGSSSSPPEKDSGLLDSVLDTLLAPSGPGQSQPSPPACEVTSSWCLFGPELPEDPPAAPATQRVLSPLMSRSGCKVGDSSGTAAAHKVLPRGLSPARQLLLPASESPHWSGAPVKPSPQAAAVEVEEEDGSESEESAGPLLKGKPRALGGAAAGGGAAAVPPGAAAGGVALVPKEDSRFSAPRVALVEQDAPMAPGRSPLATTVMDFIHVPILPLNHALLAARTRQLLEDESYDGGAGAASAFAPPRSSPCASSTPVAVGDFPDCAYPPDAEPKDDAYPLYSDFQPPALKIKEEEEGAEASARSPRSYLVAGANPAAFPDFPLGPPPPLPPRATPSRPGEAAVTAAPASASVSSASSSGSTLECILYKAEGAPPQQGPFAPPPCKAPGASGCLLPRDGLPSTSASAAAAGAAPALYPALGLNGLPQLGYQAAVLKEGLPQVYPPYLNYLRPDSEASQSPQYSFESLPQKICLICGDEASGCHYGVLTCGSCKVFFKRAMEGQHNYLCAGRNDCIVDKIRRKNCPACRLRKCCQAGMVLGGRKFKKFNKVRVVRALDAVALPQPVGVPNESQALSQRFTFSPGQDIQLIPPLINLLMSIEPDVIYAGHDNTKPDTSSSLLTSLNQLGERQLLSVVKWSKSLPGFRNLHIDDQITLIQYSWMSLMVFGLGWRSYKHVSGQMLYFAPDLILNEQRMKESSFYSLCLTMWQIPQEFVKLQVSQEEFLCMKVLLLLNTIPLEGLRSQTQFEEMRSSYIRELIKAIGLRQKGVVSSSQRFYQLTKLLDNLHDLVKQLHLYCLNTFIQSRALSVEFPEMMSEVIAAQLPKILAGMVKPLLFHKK

[3] = target: T2, Neuropeptide Y receptor type 2 (Homo sapiens, UniProt P49146)
T2 sequence (P49146 whole entry): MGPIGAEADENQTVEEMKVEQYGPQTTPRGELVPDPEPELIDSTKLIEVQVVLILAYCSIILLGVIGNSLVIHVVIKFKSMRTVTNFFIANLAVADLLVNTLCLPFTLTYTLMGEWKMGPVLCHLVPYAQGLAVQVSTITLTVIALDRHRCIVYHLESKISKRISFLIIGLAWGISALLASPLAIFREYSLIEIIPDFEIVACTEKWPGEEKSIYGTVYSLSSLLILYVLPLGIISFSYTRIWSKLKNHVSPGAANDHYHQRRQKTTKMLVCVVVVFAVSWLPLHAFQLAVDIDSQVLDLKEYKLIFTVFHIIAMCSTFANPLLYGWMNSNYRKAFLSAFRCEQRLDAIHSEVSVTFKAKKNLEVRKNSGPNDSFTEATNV

B1 bradykinin receptor = target: T3, B1 bradykinin receptor (Homo sapiens, UniProt P46663)
T3 sequence (P46663 whole entry): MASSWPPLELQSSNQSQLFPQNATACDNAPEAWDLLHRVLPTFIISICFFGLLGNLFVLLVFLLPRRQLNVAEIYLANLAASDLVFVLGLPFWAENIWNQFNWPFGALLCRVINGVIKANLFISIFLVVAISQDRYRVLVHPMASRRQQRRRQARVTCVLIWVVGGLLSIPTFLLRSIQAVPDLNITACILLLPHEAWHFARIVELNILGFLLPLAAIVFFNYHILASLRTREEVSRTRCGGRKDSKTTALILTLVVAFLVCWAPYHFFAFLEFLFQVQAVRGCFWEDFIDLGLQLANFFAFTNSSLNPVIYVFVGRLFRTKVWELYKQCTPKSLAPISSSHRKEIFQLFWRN

[4] = target: Voltage-dependent N-type calcium channel subunit alpha-1B (Rattus norvegicus, UniProt Q02294); format: functional
Chain of Voltage-dependent N-type calcium channel subunit alpha-1B (Q02294 whole entry): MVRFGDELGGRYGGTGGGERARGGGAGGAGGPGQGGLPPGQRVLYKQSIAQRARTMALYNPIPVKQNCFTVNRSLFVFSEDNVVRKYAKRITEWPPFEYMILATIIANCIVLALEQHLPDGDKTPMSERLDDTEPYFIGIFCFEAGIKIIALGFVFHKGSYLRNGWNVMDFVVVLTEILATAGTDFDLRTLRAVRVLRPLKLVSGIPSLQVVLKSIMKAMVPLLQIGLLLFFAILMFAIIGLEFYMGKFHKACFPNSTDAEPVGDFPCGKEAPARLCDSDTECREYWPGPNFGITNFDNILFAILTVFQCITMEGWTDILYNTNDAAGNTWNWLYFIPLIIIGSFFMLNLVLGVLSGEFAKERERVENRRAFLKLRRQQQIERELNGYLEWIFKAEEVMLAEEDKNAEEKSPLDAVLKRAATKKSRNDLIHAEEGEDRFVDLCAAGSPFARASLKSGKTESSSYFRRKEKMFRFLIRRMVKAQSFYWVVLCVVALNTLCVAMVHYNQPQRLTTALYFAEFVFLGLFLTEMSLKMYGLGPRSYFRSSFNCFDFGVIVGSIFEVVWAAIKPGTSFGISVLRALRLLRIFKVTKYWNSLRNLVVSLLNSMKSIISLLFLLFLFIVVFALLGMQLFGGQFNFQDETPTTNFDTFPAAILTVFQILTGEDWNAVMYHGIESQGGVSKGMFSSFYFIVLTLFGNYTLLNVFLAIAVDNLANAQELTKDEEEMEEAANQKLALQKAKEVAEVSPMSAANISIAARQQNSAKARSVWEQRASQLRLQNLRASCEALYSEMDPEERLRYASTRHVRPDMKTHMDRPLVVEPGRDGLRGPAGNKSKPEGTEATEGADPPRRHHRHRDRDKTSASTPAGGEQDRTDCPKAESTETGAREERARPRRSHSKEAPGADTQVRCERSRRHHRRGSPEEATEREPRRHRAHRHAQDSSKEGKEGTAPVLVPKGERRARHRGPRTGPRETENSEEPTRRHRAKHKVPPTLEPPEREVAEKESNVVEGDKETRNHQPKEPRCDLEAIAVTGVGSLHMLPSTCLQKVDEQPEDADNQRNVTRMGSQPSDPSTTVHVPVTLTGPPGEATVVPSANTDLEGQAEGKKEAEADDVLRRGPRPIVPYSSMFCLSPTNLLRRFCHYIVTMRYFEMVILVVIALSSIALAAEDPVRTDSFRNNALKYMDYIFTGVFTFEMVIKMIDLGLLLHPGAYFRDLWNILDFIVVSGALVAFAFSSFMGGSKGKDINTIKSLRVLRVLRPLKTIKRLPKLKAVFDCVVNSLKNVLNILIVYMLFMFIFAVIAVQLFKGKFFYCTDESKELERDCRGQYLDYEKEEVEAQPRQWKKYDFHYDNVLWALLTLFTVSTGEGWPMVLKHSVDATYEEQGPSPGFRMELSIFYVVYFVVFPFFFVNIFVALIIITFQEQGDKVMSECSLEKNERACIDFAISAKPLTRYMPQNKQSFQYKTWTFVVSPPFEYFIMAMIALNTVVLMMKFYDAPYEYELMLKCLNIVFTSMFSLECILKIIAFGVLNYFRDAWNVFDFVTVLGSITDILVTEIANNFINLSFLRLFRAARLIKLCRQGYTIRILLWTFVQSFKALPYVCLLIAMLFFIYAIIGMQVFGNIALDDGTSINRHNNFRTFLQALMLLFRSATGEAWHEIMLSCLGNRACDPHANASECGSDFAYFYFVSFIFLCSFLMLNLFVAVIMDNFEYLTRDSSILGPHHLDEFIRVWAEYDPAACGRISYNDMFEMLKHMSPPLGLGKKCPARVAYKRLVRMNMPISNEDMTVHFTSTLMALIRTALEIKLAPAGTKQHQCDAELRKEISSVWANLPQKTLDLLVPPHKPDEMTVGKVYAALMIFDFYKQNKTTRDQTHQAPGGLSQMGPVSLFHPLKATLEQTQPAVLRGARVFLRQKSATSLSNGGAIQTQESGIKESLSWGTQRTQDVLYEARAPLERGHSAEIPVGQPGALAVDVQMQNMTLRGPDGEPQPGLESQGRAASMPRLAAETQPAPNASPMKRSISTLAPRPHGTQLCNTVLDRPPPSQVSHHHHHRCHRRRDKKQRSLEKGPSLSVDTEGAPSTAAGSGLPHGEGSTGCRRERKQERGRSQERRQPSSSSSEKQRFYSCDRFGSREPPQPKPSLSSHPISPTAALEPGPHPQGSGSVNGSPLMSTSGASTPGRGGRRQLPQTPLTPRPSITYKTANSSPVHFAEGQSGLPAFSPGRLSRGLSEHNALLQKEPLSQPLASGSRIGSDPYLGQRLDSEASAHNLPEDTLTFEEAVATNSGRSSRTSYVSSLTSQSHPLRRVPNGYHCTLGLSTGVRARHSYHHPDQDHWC

[5] = target: T4, Alpha-1A adrenergic receptor (Homo sapiens, UniProt P35348)
T4 sequence (P35348 whole entry): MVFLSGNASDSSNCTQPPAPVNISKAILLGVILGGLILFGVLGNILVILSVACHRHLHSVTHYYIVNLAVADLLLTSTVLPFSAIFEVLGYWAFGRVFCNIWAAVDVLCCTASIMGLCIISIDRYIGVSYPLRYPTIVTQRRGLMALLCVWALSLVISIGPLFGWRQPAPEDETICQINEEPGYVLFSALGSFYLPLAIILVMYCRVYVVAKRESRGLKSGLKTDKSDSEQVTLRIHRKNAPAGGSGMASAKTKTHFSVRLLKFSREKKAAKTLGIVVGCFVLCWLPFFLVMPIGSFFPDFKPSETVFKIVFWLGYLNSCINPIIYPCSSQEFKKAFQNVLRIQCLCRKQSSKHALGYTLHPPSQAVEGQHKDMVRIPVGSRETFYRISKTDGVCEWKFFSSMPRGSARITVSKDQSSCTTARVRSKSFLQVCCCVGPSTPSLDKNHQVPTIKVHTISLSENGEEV

[6] = target: Beta-3 adrenergic receptor (Homo sapiens, UniProt P13945)
Chain of Beta-3 adrenergic receptor (P13945 whole entry): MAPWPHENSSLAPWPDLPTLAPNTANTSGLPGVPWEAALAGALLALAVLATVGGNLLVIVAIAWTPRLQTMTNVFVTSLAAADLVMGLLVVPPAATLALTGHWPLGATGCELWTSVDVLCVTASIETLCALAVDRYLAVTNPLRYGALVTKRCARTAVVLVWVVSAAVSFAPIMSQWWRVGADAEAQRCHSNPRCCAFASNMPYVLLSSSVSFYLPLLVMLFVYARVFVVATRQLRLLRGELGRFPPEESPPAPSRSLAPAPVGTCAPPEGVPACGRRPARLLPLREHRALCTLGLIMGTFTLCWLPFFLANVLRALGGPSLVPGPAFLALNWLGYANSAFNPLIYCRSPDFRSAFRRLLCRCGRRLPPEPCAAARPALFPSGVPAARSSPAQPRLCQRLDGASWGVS
Note: assay procedure not described here.

Chain of 5-hydroxytryptamine receptor 2A (P28223 whole entry): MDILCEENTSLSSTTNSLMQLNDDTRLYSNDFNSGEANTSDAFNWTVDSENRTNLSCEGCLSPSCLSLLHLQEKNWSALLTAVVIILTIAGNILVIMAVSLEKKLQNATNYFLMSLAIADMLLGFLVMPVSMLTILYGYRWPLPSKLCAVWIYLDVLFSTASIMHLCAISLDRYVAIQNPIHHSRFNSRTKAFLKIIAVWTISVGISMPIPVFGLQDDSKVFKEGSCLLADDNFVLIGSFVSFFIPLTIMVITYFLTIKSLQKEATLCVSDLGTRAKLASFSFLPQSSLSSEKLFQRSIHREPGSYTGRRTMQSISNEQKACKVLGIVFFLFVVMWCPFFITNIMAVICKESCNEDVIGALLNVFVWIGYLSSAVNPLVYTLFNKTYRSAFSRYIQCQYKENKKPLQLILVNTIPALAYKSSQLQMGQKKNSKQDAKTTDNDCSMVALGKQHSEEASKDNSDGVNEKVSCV
Chain of Histamine H1 receptor (P35367 whole entry): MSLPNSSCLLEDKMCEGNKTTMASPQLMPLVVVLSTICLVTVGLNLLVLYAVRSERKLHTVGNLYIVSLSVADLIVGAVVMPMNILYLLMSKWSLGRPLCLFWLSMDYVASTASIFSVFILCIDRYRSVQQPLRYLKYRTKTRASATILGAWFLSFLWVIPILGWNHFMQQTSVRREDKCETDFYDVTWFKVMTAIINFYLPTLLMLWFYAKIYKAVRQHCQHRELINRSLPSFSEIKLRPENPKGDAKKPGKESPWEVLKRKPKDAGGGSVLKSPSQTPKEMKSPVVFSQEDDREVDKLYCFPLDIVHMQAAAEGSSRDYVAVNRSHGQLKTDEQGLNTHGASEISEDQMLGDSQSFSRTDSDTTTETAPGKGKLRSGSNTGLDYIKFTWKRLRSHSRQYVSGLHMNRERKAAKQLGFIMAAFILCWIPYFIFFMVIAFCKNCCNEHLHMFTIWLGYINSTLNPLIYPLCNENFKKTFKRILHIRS

C[N+]1(C)CCC(=C(c2ccccc2)c2ccccc2)CC1
AC50 [1]: 19 µM
AC50 (Histamine H1 receptor): 2.9 µM

CN(C)Cc1nnc2n1-c1ccc(Cl)cc1C(c1ccccc1)=NC2 [ADINAZOLAM]
AC50 (Histamine H1 receptor): > 10 µM

CN(C)C/C=C/C(=O)Nc1cc2c(Nc3ccc(F)c(Cl)c3)ncnc2cc1O[C@H]1CCOC1 [AFATINIB]
AC50 [1]: > 30 µM
AC50 (Histamine H1 receptor): > 30 µM
AC50 [2]: > 50 µM

Cc1ccccc1-n1c(CF)nc2ccc(N)cc2c1=O [AFLOQUALONE]
AC50 [1]: > 10 µM
AC50 (Histamine H1 receptor): > 10 µM

CC1=C(C(=O)OC(C)C)C(c2cccc([N+](=O)[O-])c2)C(C(=O)OC2CN(C(c3ccccc3)c3ccccc3)C2)=C(N)N1 (stereo not drawn) [AZELNIDIPINE]
AC50 [1]: > 30 µM
AC50 (Histamine H1 receptor): > 30 µM
AC50 [2]: > 50 µM

O=C(/C=C/c1cccc(S(=O)(=O)Nc2ccccc2)c1)NO [BELINOSTAT]
AC50 (Histamine H2 receptor): > 10 µM
AC50 (Progesterone receptor): > 30 µM
AC50 [3]: > 10 µM
AC50 (B1 bradykinin receptor): > 10 µM
AC50 (Histamine H1 receptor): > 10 µM
AC50 [4]: > 10 µM
AC50 [5]: > 10 µM
AC50 [6]: > 30 µM

CC(Cc1cccc(C(F)(F)F)c1)NCCOC(=O)c1ccccc1 (stereo not drawn) [BENFLUOREX]
AC50 [1]: 6.86 µM
AC50 (Histamine H1 receptor): 13.5 µM

CC(O)(CS(=O)(=O)c1ccc(F)cc1)C(=O)Nc1ccc(C#N)c(C(F)(F)F)c1 (stereo not drawn) [BICALUTAMIDE]
AC50 (Histamine H2 receptor): > 10 µM
AC50 (Progesterone receptor): > 30 µM
AC50 [3]: > 30 µM
AC50 (B1 bradykinin receptor): > 30 µM
AC50 [2]: > 30 µM
AC50 [4]: > 10 µM
AC50 [5]: > 10 µM
AC50 [6]: > 30 µM

O=C(O)COCCN1CCN(C(c2ccccc2)c2ccc(Cl)cc2)CC1 (stereo not drawn) [CETIRIZINE]
AC50 (Progesterone receptor): > 30 µM
AC50 [3]: > 30 µM
AC50 (B1 bradykinin receptor): > 30 µM
AC50 [2]: > 30 µM
AC50 [4]: > 10 µM
AC50 [5]: > 10 µM
AC50 [6]: > 30 µM

C[C@H](CCC(=O)O)[C@H]1CC[C@H]2[C@@H]3[C@H](O)C[C@@H]4C[C@H](O)CC[C@]4(C)[C@H]3C[C@H](O)[C@]12C [CHOLIC ACID]
AC50 [2]: > 50 µM

CC(=O)O[C@]1(C(C)=O)CC[C@H]2[C@@H]3C=C(Cl)C4=CC(=O)[C@@H]5C[C@@H]5[C@]4(C)[C@H]3CC[C@@]21C [CYPROTERONE ACETATE]
AC50 (Histamine H2 receptor): > 10 µM
AC50 [4]: > 10 µM
AC50 [6]: > 30 µM

C/C=C(/C(=C/C)c1ccc(O)cc1)c1ccc(O)cc1 [DIENESTROL]
AC50 [1]: > 10 µM
AC50 (Histamine H1 receptor): > 10 µM

C[C@@H]1C[C@H]2[C@@H]3C[C@H](F)C4=CC(=O)C=C[C@]4(C)[C@@]3(F)[C@@H](O)C[C@]2(C)[C@@]1(OC(=O)c1ccco1)C(=O)SCF [FLUTICASONE FUROATE]
AC50 (Histamine H2 receptor): > 10 µM
AC50 [3]: > 10 µM
AC50 (B1 bradykinin receptor): > 10 µM
AC50 (Histamine H1 receptor): > 10 µM
AC50 [4]: > 10 µM
AC50 [5]: > 10 µM

COc1ccc([C@@H]2CC(=O)c3c(O)cc(O)cc3O2)cc1O [HESPERETIN]
AC50 [1]: > 10 µM
AC50 (Histamine H1 receptor): > 10 µM

CNCCc1ccc(OC(=O)C(C)C)c(OC(=O)C(C)C)c1 [IBOPAMINE]
AC50 [1]: > 30 µM
AC50 (Histamine H1 receptor): > 30 µM

CN(C)CCCN1c2ccccc2CCc2ccccc21 [IMIPRAMINE]
AC50 (Histamine H2 receptor): 0.0697 µM
AC50 (Progesterone receptor): > 30 µM
AC50 [3]: > 30 µM
AC50 (B1 bradykinin receptor): > 30 µM
AC50 [4]: > 10 µM
AC50 [5]: 0.239 µM
AC50 [6]: > 30 µM

CCOC(=O)C1=C(C)NC(C)=C(C(=O)OCC)C1c1ccccc1/C=C/C(=O)OC(C)(C)C [LACIDIPINE]
AC50 [2]: > 50 µM

COC(=O)C1=C(C)NC(C)=C(C(=O)OCCN2CCN(C(c3ccccc3)c3ccccc3)CC2)C1c1cccc([N+](=O)[O-])c1 (stereo not drawn) [MANIDIPINE 6300]
AC50 [1]: > 30 µM
AC50 (Histamine H1 receptor): 3.7 µM

C=C1c2cccc(O)c2C(=O)C2=C(O)[C@]3(O)C(=O)C(C(N)=O)=C(O)[C@@H](N(C)C)[C@@H]3[C@@H](O)[C@H]12 [METHACYCLINE]
AC50 [1]: > 10 µM
AC50 (Histamine H1 receptor): > 10 µM

CN(Cc1cnc2nc(N)nc(N)c2n1)c1ccc(C(=O)N[C@@H](CCC(=O)O)C(=O)O)cc1 [METHOTREXATE]
AC50 (Histamine H2 receptor): > 10 µM
AC50 (Progesterone receptor): > 30 µM
AC50 [3]: > 30 µM
AC50 (B1 bradykinin receptor): > 30 µM
AC50 [4]: > 10 µM
AC50 [6]: > 30 µM

O=C1c2cccc3c2[C@H](CCC3)CN1[C@@H]1CN2CCC1CC2 [PALONOSETRON]
AC50 [1]: > 30 µM

OC[C@H]1O[C@@H](n2cnc3c2NC=NC[C@H]3O)C[C@@H]1O [PENTOSTATIN]
AC50 [1]: > 30 µM
AC50 (Histamine H1 receptor): > 30 µM

Cc1cccc(C)c1NC(=O)CC12CCCN1CCC2 [PILSICAINIDE]
AC50 [1]: > 30 µM
AC50 (Histamine H1 receptor): > 30 µM
AC50 [2]: > 50 µM

CN[C@@H](C)[C@@H](O)c1ccccc1 [PSEUDOEPHEDRINE]
AC50 (Histamine H2 receptor): > 10 µM
AC50 (Progesterone receptor): > 30 µM
AC50 [3]: > 30 µM
AC50 (B1 bradykinin receptor): > 30 µM
AC50 (Histamine H1 receptor): > 10 µM
AC50 [4]: > 10 µM
AC50 [5]: > 10 µM
AC50 [6]: > 30 µM

CCCN1CC(NS(=O)(=O)N(CC)CC)CC2Cc3c(O)cccc3CC21 (stereo not drawn) [QUINAGOLIDE]
AC50 (Histamine H1 receptor): 2.8 µM

O=C1OC(OC(=O)c2cccnc2Nc2cccc(C(F)(F)F)c2)c2ccccc21 (stereo not drawn) [TALNIFLUMATE]
AC50 [1]: > 30 µM
AC50 (Histamine H1 receptor): > 30 µM

O=S1(=O)CCN(CN2CCS(=O)(=O)NC2)CN1 [TAUROLIDINE]
AC50 [1]: > 30 µM
AC50 (Histamine H1 receptor): 4.6 µM

C[C@]12C=CC(=O)C=C1CC[C@@H]1[C@@H]2CC[C@]2(C)OC(=O)CC[C@@H]12 [TESTOLACTONE]
AC50 [1]: > 30 µM
AC50 (Histamine H1 receptor): > 10 µM

CCOC(=O)c1c(CSc2ccccc2)n(C)c2cc(Br)c(O)c(CN(C)C)c12 [UMIFENOVIR]
AC50 [1]: 6.7 µM
AC50 (Histamine H1 receptor): 30 µM
